Results from patent US20230330229A1, “METHODS FOR IMAGE-GUIDED RADIOTHERAPY” (UNIVERSITE CLAUDE BERNARD LYON 1, priority 2020, published 2023).

How the values were obtained:
brain metastases = assay: MRI signal enhancement in brain metastases (Nano-Rad phase I-b trial, 3 Tesla, 3D T1-weighted); assay type: in vivo, human; details: D0, 15 min after injection, 0.1 mmol/kg i.v., metastases >1 cm
From the text: This study is part of a prospective dose escalation phase I-b clinical trial to evaluate the tolerance of the intravenous administration of radiosensitizing AGuIX nanoparticles in combination with whole brain radiotherapy for the treatment of brain metastases. The Nano-Rad trial (Radiosensitization of Multiple Brain Metastases Using AGuIX Gadolinium Based Nanoparticles) was registered as NCT02820454. Here, we report the findings of the MRI protocol applied to the 15 recruited patients. […]
MRI analyses were performed using an in-house computer program called MP3 (https://github.com/nifm-gin/MP3) developed by the GIN Laboratory (Grenoble, France) and running under Matlab® software. Image analyses include counting and measurements of metastases, quantification of contrast enhancement, relaxation times and concentration of nanoparticles. […] The MRI enhancement, expressed in percentage, was defined as the ratio of the MRI signal amplitude post contrast agent administration over the MRI signal amplitude pre contrast agent administration; the MRI signal amplitude being measured in the 3D T1-weighted image dataset. […]

[1] = magnetic field of 3 Tesla, literature reference; cited from earlier work
[2] = Detection of solutions in Eppendorf by MRIdian MR-linac at 0.35 T; details: spin echo, solutions in PPI water
Method: ViewRay Linac MRI displaying magnetic field of 0.35 T (MRIdian MR-linac, ViewRay Inc., Oakwood, USA) (S. Klüter, Clinical and Translational Radiation Oncology, 2019), samples with different concentrations in gadolinium were tested and compared to Multihance (Bracco) using the Torso coil (two surface flexible 6-channel coils array).
The ViewRay MRIdian system is clinically used for external radiotherapy purpose, thus it is a very appropriate device dedicated to the use of the AGuIX. A 2D coronal spin echo sequence was used: TR=400 ms, TE=20 ms, Flip Angle=90°, Bandwidth=57. Hz/Px, Matrix=512×512, Slice Thickness=3 mm, Field Of View=350×350×263 mm, Number of Averages=5. The total acquisition time was 12:30 minutes.
Solutions of multihance and AGuIX were prepared by dilution in PPI water from stock solutions of 0.5 mol·L^−1 and 100 g·L^−1 respectively 1 hour before imaging and placed in Eppendorf.

Structure (SMILES) | MRI enhancement averaged over all measurable metastases (brain metastases) | r1 per Gd^3+ ion [1] | Detection sensitivity (lowest detected [Gd^3+]) [2]
CNC[C@H](O)[C@@H](O)[C@H](O)[C@H](O)CO.O=C([O-])CN1CCN(CC(=O)[O-])CCN(CC(=O)O)CCN(CC(=O)[O-])CC1.[Gd+3] [Dotarem, gadoterate meglumine] | 182.9±116.2% | 3.5 mM⁻¹ s⁻¹ | 
O=C([O-])CN(CCN(CC(=O)[O-])CC(=O)[O-])CCN(CC(=O)[O-])C(COCc1ccccc1)C(=O)[O-].[Gd+3].[H+].[H+] (stereo not drawn) [Multihance, gadobenic acid] |  |  | 25 µM
